Read-outs that look alike come from different tables or passages of the source.
Assays:
MCF-7 breast cell line = assay: MTT assay, anti-proliferative activity toward MCF-7; format: cell-based; details: Homo sapiens, MCF7
Procedure: . The developed compounds were evaluated in vitro using the MTT cell viability assay following the published techniques (Supplementary Data, page 42). […]
(§1) The 96 well tissue culture plate was seeded with 1 X 10^5 cells / ml (100 ul / well) and cultured at 37 degrees Celsius for 24 hours to form a full monolayer sheet. After forming a confluent sheet of cells, growth medium was decanted from 96 well micro titer plates, the cell monolayer was washed twice with wash media, and two-fold dilutions of the tested sample were prepared in RPMI medium with 2% serum (maintenance medium). In each well, 0.1 ml of each dilution was examined, with three wells serving as controls and receiving only maintenance media.
(§2) The plate was incubated at 37 degrees Celsius and then analyzed. Cells were examined for any physical evidence of toxicity, such as partial or total monolayer loss, rounding, shrinkage, or cell granulation. MTT solution (5mg/ml in PBS) was prepared (BIO BASIC CANADA INC), and 20ul MTT solution was added to each well. Shake the MTT into the medium for 5 minutes at 150rpm on a shaking table. Incubate for 4 hours (37°C, 5% CO2) to allow the MTT to be digested. Remove the media. (If required, dry plate on paper towels to remove residue. In 200ul DMSO, resuspend formazan (MTT metabolic product). Shake at 150rpm for 5 minutes to properly mix the formazan into the solvent. At 560nm, measure optical density and subtract background at 620nm. The optical density should be proportional to the number of cells. MCF-7 and MCF-10A cell lines were provided with 10% fetal bovine serum (FBS, Sigma-Aldrich, MO, USA). Data are presented as the mean of the IC50 values ± SD from three different experiments. […]

MCF-10A = assay: MTT assay, cytotoxicity toward MCF-10A; format: cell-based; details: Homo sapiens
Procedure: The developed compounds were evaluated in vitro using the MTT cell viability assay following the published techniques (Supplementary Data, page 42). […]
as §1, §2

VEGFR-2 = VEGFR-2 (Homo sapiens, UniProt P35968); assay: In vitro VEGFR-2 kinase inhibition assay; format: biochemical; details: mean ± SD of three experiments
VEGFR-2, sequence (P35968 20-1356): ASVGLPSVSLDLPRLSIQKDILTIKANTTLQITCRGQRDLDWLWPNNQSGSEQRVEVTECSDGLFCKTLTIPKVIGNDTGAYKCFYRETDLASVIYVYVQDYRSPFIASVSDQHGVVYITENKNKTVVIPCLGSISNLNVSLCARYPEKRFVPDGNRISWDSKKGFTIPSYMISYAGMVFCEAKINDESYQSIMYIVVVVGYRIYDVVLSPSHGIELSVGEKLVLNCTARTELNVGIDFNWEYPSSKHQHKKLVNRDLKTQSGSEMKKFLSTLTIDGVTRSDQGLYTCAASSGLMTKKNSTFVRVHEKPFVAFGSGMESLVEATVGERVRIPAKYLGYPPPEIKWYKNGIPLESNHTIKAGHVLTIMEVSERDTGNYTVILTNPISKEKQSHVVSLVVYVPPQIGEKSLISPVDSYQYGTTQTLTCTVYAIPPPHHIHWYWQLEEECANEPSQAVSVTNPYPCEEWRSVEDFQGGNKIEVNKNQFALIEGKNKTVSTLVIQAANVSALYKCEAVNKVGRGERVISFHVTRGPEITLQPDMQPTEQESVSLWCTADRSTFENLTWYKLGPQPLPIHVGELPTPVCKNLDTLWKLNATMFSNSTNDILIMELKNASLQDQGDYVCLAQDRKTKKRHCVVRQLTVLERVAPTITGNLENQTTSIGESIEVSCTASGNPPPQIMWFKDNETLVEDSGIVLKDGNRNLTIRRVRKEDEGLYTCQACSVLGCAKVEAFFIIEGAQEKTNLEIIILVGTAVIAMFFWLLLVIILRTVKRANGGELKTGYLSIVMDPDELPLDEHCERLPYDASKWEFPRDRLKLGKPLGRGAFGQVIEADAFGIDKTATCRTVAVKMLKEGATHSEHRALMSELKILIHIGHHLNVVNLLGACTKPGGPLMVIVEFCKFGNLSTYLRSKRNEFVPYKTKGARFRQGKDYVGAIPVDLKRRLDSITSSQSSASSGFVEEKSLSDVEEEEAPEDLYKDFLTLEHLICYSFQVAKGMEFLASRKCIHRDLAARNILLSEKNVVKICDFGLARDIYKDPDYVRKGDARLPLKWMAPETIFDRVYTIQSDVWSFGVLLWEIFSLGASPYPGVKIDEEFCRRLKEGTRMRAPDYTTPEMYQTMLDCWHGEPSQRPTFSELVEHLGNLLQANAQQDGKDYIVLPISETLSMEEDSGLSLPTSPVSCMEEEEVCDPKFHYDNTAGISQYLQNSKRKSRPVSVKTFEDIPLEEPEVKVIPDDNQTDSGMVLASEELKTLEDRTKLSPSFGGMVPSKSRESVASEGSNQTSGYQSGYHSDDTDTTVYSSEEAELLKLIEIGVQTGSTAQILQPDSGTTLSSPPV

MCF-7 cell line = details: cited from earlier work
[1] = MCF-7 cell line, MTT assay, mean ± SD of three experiments, read-out: IC50
[2] = MTT assay, mean ± SD of three experiments, read-out: IC50

SMILES | IC50 (MCF-7 breast cell line; [1]) [µM] | melting point [°C] | IC50 (MCF-7 breast cell line) [µM] | further results
Cc1nc2sccn2c1C(=O)NN=C1C(=O)Nc2ccccc21 [Compound 6a, 6-Methyl-N′-(2-oxoindolin-3-ylidene)imidazo[2,1-b]thiazole-5-carbohydrazide] | 24 ± 0.67 | > 300 |  | 
Cc1nc2sccn2c1C(=O)NN=C1C(=O)Nc2ccc(F)cc21 [Compound 6b, N′-(5-Fluoro-2-oxoindolin-3-ylidene)-6-methylimidazo[2,1-b]thiazole-5-carbohydrazide] | 11.5 ± 0.52 | > 300 |  | IC50 (MCF-10A; [2]): 125 ± 2.7 µM; IC50 (VEGFR-2): 3.85 ± 0.15 µM
Cc1nc2sccn2c1C(=O)NN=C1C(=O)Nc2ccc(Cl)cc21 [Compound 6c, N′-(5-Chloro-2-oxoindolin-3-ylidene)-6-methylimidazo[2,1-b]thiazole-5-carbohydrazide] | 43.1 ± 3.69 | 292 to 293 |  | 
Cc1nc2sccn2c1C(=O)NN=C1C(=O)Nc2ccc(Br)cc21 [Compound 6d, N′-(5-Bromo-2-oxoindolin-3-ylidene)-6-methylimidazo[2,1-b]thiazole-5-carbohydrazide] | 22.8 ± 1.38 | 296 to 297 |  | 
CCCN1C(=O)C(=NNC(=O)c2c(C)nc3sccn23)c2ccccc21 [Compound 6e, 6-Methyl-N′-(2-oxo-1-propylindolin-3-ylidene)imidazo[2,1-b]thiazole-5-carbohydrazide] |  | 256 to 257 | 61.4 ± 3.15 | 
CCCN1C(=O)C(=NNC(=O)c2c(C)nc3sccn23)c2cc(F)ccc21 [Compound 6f, N′-(5-Fluoro-2-oxo-1-propylindolin-3-ylidene)-6-methylimidazo[2,1-b]thiazole-5-carbohydrazide] |  | 243 to 244 | 82.5 ± 2.75 | 
CCCN1C(=O)C(=NNC(=O)c2c(C)nc3sccn23)c2cc(Cl)ccc21 [Compound 6g, N′-(5-Chloro-2-oxo-1-propylindolin-3-ylidene)-6-methylimidazo[2,1-b]thiazole-5-carbohydrazide] |  | 254 to 255 | 52.5 ± 1.26 | 
CCCN1C(=O)C(=NNC(=O)c2c(C)nc3sccn23)c2cc(Br)ccc21 [Compound 6h, N′-(5-Bromo-2-oxo-1-propylindolin-3-ylidene)-6-methylimidazo[2,1-b]thiazole-5-carbohydrazide] |  | 261 to 262 | 74.3 ± 2.19 | 
CCCCN1C(=O)C(=NNC(=O)c2c(C)nc3sccn23)c2cc(F)ccc21 [Compound 6j, N′-(1-Butyl-5-fluoro-2-oxoindolin-3-ylidene)-6-methylimidazo[2,1-b]thiazole-5-carbohydrazide] |  | 237 to 238 | 11.7 ± 0.52 | IC50 (MCF-10A): 47.7 ± 0.53 µM; IC50 (VEGFR-2): 1.51 ± 0.06 µM
CCCCN1C(=O)C(=NNC(=O)c2c(C)nc3sccn23)c2cc(Cl)ccc21 [Compound 6k, N′-(1-Butyl-5-chloro-2-oxoindolin-3-ylidene)-6-methylimidazo[2,1-b]thiazole-5-carbohydrazide] |  | 224 to 225 | 42.7 ± 2.01 | 
CCCCN1C(=O)/C(=N\NC(=O)c2c(C)nc3sccn23)c2cc(Br)ccc21 [Compound 6l, N′-(5-Romo-1-butyl-2-oxoindolin-3-ylidene)-6-methylimidazo[2,1-b]thiazole-5-carbohydrazide] |  | 237 to 238 | 52.6 ± 2.36 | 
Cc1nc2sccn2c1NC(=O)Nc1ccccc1 [Compound 8a, 1-(6-Methylimidazo[2,1-b]thiazol-5-yl)-3-phenylurea] | 110 ± 4.62 | 287 to 288 |  | 
Cc1ccc(NC(=O)Nc2c(C)nc3sccn23)cc1 [Compound 8b, 1-(6-Methylimidazo[2,1-b]thiazol-5-yl)-3-(p-tolyl)urea] | 115 ± 4.99 | 282 to 283 |  | 
COc1ccc(NC(=O)Nc2c(C)nc3sccn23)cc1 [Compound 8c, 1-(4-Methoxyphenyl)-3-(6-methylimidazo[2,1-b]thiazol-5-yl)urea] | 106 ± 5.32 | 284 to 285 |  | 
Cc1nc2sccn2c1NC(=O)Nc1ccc(F)cc1 [Compound 8d, 1-(4-Fluorophenyl)-3-(6-methylimidazo[2,1-b]thiazol-5-yl)urea] | 72.3 ± 4.71 | 281 to 282 |  | 
Cc1nc2sccn2c1NC(=O)Nc1ccc(Cl)cc1 [Compound 8e, 1-(4-Chlorophenyl)-3-(6-methylimidazo[2,1-b]thiazol-5-yl)urea] | 35.7 ± 3.32 | 285 to 286 |  | 
Cc1nc2sccn2c1NC(=O)Nc1ccc(Br)cc1 [Compound 8f, 1-(4-Bromophenyl)-3-(6-methylimidazo[2,1-b]thiazol-5-yl)urea] | 31.1 ± 2.47 | 288 to 289 |  | 
Cc1nc2sccn2c1NC(=O)Nc1ccc(S(N)(=O)=O)cc1 [Compound 8g, 4-(3-(6-Methylimidazo[2,1-b]thiazol-5-yl)ureido)benzenesulfonamide] | 41.6 ± 1.59 | 283 to 284 |  | 
COc1cc(C(=O)/C=C/c2c(C(F)(F)F)nc3sccn23)cc(OC)c1OC [IX] |  |  |  | IC50 (MCF-7 cell line; MCF-7 cell line): 0.794 µM
CNC(=O)c1cc(Oc2ccc(NC(=O)Nc3ccc(Cl)c(C(F)(F)F)c3)cc2)ccn1 [Sorafenib (I), Sorafenib, reference compound] | 7.55 ± 0.4 |  |  | IC50 (MCF-10A; [2]): 22.4 ± 1.29 µM
COc1ccc(-c2nc(N/N=C3/C(=O)Nc4ccc(Cl)cc43)c3ccccc3n2)cc1OC [VIII] |  |  |  | IC50 (MCF-7 cell line; MCF-7 cancerous cell line): 2.1 µM
O=C1Nc2ccccc2/C1=N/N=C/c1ccc[nH]1 [VI] |  |  |  | IC50 (MCF-7 cell line; MCF-7 cancerous cell line): 6.25 µM

From PMC10892120, “Design, Synthesis and Biological Assessment of N′-(2-Oxoindolin-3-ylidene)-6-methylimidazo[2,1-b]thiazole-5-carbohydrazides as Potential Anti-Proliferative Agents toward MCF-7 Breast Cancer” (Pharmaceuticals, 2024)
